# From US11702428B2, “Chemical compounds as inhibitors of interleukin-1 activity” (Genentech, Inc., priority 2017, dated 2023)
# Entries after “also recorded” stand apart in the source; their conditions may differ.
# Assays:
# [1] = tested on: IL-1β; test: LPS/ATP challenge model in C57BL/6 mice, IL-1β in peritoneal lavage; format: in vivo; settings: 3.5 hours post dose
# Experimental: (§1) The purpose of this study was to determine the effects of Compounds 1 and 2 treatment on cytokine production after LPS/ATP injection in female C57BL/6 mice.
# (§2) On Day −1 mice were weighed and assigned to groups per Table 2 (see below) in a balanced manner to achieve similar average weight across the groups at the start of the study.
# (§3) All mice received a single dose of treatment or vehicle, at hour minus 1.
# (§4) At hour 0, all mice received 1 μg of lipopolysaccharide, ultra pure (LPS, InvivoGen, San Diego, Calif.) in 0.5 ml PBS, intraperitoneally.
# (§5) At hour 2 (two hours after LPS injection), all mice were injected intraperitoneally with 0.5 ml of 80 mM ATP disodium salt (Sigma, pH adjusted to 7.2 before injection).
# (§6) At hour 2.5 (30 minutes after ATP injection and 3.5 hours after compound dosing), blood from all mice was collected via retro-orbital bleeding into K2 EDTA tubes and plasma was prepared and stored at […]. Samples were shipped to the customer or vendor of customers choosing within 7 days of completing the study.
# (§7) Immediately after the collection of blood, each mouse was euthanized, the peritoneal cavity was lavaged with 3 ml of ice-cold PBS containing 25 U/ml heparin sodium salt, cocktail of protease inhibitors (Complete™ ULTRA Tablets, Sigma, Roche), and 10% FBS. Approximately 1 ml of the lavage was collected, spun down to remove cells and the supernatant stored at −80° C.
# (§8) Compound powders were stored at 4° C. All compounds were prepared fresh. Compounds were weighed out and first ground with a mortar and pestle, then ground with a small amount of vehicle. The mortar was then repeatedly rinsed with vehicle to remove all material and achieve the correct concentration. The final solution was vortexed to create a homogeneous mixture
# (§9) Mouse IL-1β and TNFα concentrations in peritoneal lavage samples were determined using Becton Dickinson (Franklin Lakes, N.J.) CBA analysis kit, according to manufacturer's protocol. A single analysis was performed on each sample.
# (§10) Concentrations of cytokines were compared using Student t-test.
# [2] = tested on: pro-caspase-1; test: Inhibition of Caspase1 activation in bone marrow derived macrophages (Western Blot); format: cell-based, mouse; settings: 10 μM; BMDMs, LPS 100 ng/ml 3 hours, nigericin 10 μM 90 minutes
# [3] = tested on: TNFα; test: LPS/ATP challenge model in C57BL/6 mice, TNFα in peritoneal lavage; format: in vivo; settings: 3.5 hours post dose
# Experimental: as §1, §2, §3, §4, §5, §6, §7, §8, §9, §10
structure (smiles),measurement,setting,value
"CS(=O)(=O)NC(=O)Nc1c2c(cc3c1CCC3)CCC2 [Compound 2, N-((1,2,3,5,6,7-hexahydro-s-indacen-4-yl)carbamoyl)methanesulfonamide]",Mean (IL-1β),[1]; single oral dose 0.25 mg/kg,392.7 pg/mL
same,% Decrease of IL-1β vs. Vehicle,"[1]; single oral dose 0.25 mg/kg, 0.25 mg/kg",71.0%
same,Mean (IL-1β),[1]; single oral dose 1 mg/kg,12.9 pg/mL
same,% Decrease of IL-1β vs. Vehicle,"[1]; single oral dose 1 mg/kg, 1 mg/kg",99.0%
same,Mean (IL-1β),[1]; single oral dose 2.5 mg/kg,10.7 pg/mL
same,% Decrease of IL-1β vs. Vehicle,"[1]; single oral dose 2.5 mg/kg, 2.5 mg/kg",99.2%
same,"activation of pro-caspase-1 (p45 and p10 bands, Western Blot)",[2],blocked; also recorded: inhibition of activation
same,% Decrease of TNFα vs. Vehicle,[3]; single oral dose 0.25 mg/kg,−12.5%
same,Mean (TNFα),[3]; single oral dose 0.25 mg/kg,384.7 pg/mL
same,% Decrease of TNFα vs. Vehicle,[3]; single oral dose 1 mg/kg,−15.5%
same,Mean (TNFα),[3]; single oral dose 1 mg/kg,394.9 pg/mL
same,% Decrease of TNFα vs. Vehicle,[3]; single oral dose 2.5 mg/kg,−218%
same,Mean (TNFα),[3]; single oral dose 2.5 mg/kg,416.6 pg/mL
